Consider 1 compound from article PMC10627047, “Flavone-based dual PARP-Tubulin inhibitor manifesting efficacy against endometrial cancer” (Journal of Enzyme Inhibition and Medicinal Chemistry, 2023).

Where “and” joins values, the source holds several entries; their conditions need not be identical. Equal values may be shown once.

Assay [1] relates to Ishikawa cells. Put plainly: Mitochondrial membrane potential (rhodamine 123 staining). Particulars: Ishikawa cells, 0.1, 0.5 and 1 μM, 24 h. It is filed as cell-based, human. On the procedure:
Mitochondrial membrane potential was measured by rhodamine-123 (RH-123) staining. Ishikawa cells were treated at 0.1, 0.5, and 1 μM of compound 14. Rhodamine dyes accumulate within active and polarised mitochondria under physiological conditions, resulting in robust fluorescence signals. A decline in rhodamine fluorescence intensity is observed when the dyes fail to accumulate within the mitochondria. This happens when the mitochondrial transmembrane potential is compromised. […] The decreased fluorescence patterns associated with apoptotic cell death indicate progressive dissipation of the mitochondrial transmembrane potential (Figure 12).
Rhodamine staining was employed to investigate apoptosis induced by compound 14 in Ishikawa cells. Under physiological conditions, rhodamine dyes are known to accumulate within active and polarised mitochondria, resulting in robust fluorescence signals. However, when the mitochondrial transmembrane potential is compromised the dyes fail to accumulate within the mitochondria, leading to a decline in rhodamine fluorescence intensity. The Rhodamine staining protocol followed was as follows: Ishikawa cells were treated at 0.1, 0.5, and 1 μM for 24 h, and RH-123 (1 μg) (Cat No. R8004) was added 30 min before the termination of the experiment and then washed with PBS before analysis on a fluorescence microscope.[61]

For assay [2], the system named is CDK1 protein in Ishikawa cells. Put plainly: Western blotting, cell cycle proteins. The class given is cell-based, human. The following applies: 24 h treatment. Here is the method:
Western blot analysis was performed to assess the involvement of proteins in the cell cycle arrest effects of compound 14 on Ishikawa cells.
Ishikawa cells were treated with compound-14 at 100, 500, and 1000 nM concentrations for 24 h. After 24h cells were collected and centrifuged at 400 g, washed in PBS and cell pellets were lysed in RIPA buffer in preparation of the whole cell lysate. Supernatants were collected and proteins were estimated using the Bradford reagent. An equal amount of protein (60–80 µg) was loaded into each well for SDS-PAGE. Blocking was done with 5% BSA at room temperature with shaking for 2 h. After the SDS page run was completed, we washed the PVDF membrane and then blocking was done. Blots were incubated with different primary antibodies(1:1000 dilutions), and secondary antibodies (1:10 000 dilutions) and chemiluminescence was captured on Chemidoc after incubating the blots in ECL plus solution.
Primary Antibodies: LC3B Antibody (Cell signalling Technology, Cat No:2775), Cyclin B1 (Cell signalling Technology, Cat No:4138), SKP-2 (Cell signalling Technology, Cat No:4358), CDK1 (Abcam, Anti-CDK1 antibody [A17]), cdc25c (Cell signalling Technology, Cat No:4688); internal control: Actin (Sigma Aldrich, Cat No: A5441);
In general terms: Immunoblotting shows a protein as a band on a membrane.

In another assay the target is T1, PARP1 (Homo sapiens, UniProt P09874).
T1 construct: Reaction Biology Corporation (assay service)
T1 sequence (P09874 whole entry): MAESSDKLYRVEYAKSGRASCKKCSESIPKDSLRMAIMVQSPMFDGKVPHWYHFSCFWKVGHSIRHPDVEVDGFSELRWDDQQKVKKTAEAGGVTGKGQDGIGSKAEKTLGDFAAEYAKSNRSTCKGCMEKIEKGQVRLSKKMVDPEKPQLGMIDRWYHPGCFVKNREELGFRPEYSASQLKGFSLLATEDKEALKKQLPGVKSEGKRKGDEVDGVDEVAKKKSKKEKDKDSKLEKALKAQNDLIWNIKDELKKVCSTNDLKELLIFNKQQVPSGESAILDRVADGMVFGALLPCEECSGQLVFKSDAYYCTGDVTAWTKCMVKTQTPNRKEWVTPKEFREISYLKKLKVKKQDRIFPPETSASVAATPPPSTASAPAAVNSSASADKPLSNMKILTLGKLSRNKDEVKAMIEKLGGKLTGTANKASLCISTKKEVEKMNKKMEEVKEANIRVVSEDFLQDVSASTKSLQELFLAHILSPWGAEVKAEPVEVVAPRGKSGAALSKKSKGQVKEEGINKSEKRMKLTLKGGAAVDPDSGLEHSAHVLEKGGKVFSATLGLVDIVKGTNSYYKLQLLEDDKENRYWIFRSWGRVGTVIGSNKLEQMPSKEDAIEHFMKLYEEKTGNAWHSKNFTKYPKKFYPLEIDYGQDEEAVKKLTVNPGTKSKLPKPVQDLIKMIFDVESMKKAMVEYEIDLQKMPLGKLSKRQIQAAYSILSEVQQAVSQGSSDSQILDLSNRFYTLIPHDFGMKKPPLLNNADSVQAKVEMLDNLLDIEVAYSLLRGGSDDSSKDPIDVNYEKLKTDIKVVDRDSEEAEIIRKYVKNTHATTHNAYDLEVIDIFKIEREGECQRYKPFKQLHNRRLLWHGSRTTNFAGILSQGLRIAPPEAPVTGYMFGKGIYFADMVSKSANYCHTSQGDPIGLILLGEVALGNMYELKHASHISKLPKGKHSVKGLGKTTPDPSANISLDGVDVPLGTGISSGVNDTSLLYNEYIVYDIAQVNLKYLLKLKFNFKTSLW
Nature of the assay: PARP inhibitory assay (NAD/NADH-Glo endpoint, Reaction Biology). The class given is biochemical. Particulars: 10-dose IC50, 3-fold serial dilution. Here is the method:
(§1) As such, PARP enzymatic activity transfers ADP-ribose from NAD + substrate into the PAR chain on histone substrate. The amount of NAD + remaining after the enzymatic activity was quantified using the Promega NAD/NADH-Glo™ assay kit, in the endpoint PARP activity assay.
(§2) Enzyme inhibition assays were performed by the Reaction Biology Corporation, Malvern, PA. (http://www.reactionbiology.com). PARP enzymatic activity transfers ADP-ribose from NAD + substrate into the PAR chain on histone substrate. […] NAD+ (Nicotinamide Adenine Dinucleotide), 500 nM; Protein substrate for PARP1, core histones from chicken, 10 µg/mL; protein substrate for PARP2, 5 µM.

The next assay concerns the target T2, PARP2 (Homo sapiens, UniProt Q9UGN5).
T2 construct: Reaction Biology Corporation (assay service)
The assay is described as above. Particulars: 10-dose IC50, 3-fold serial dilution. The class given is biochemical. Here is the method:
as §1, §2

The test system of assay [3] is Ishikawa cells. Nature of the assay: Nuclear and cellular morphology (DAPI staining), apoptosis. It is filed as cell-based, human. The following applies: Ishikawa cells, 0.1, 0.5 and 1 μM, 24 h. Here is the method: Ishikawa cell lines were treated with compound 14 at concentrations of 0.1, 0.5, and 1 μM for 24 h. Cellular morphology was observed by an inverted microscope. DAPI staining was done to monitor the nuclear morphology. […] Thus, the results were indicative of the apoptosis-inducing ability of compound 14 (Figure 9).
Ishikawa was treated with compounds 14 at concentrations of 0.1, 0.5, and 1 μM for 24 h. Briefly, cells were collected, washed twice with PBS, and fixed with methanol: acetic acid (3:1 ratio v/v). The next day, cells were washed and dispensed in 50 μL of fixing solution. Cells were then spread on clean slides, and exposed to DAPI solution (4′,6-diamidino-2-phenylindole(DAPI) (CAS Number: 28718–90-3) (5 μg/mL in 0.01 M citric acid and 0.45 M disodium phosphate containing 0.05% Tween 20) for 30 min at room temperature. The slides were then rinsed with distilled water for 10 min, and washed with PBS. After drying, the slides were mounted with glycerol: PBS (1:1 ratio v/v) and observed under the fluorescent microscope to figure out any nuclear morphological changes that occur during apoptosis.[60]

One may read the IC50 as the concentration needed to halve the response being measured.

T2 sequence (Q9UGN5 whole entry): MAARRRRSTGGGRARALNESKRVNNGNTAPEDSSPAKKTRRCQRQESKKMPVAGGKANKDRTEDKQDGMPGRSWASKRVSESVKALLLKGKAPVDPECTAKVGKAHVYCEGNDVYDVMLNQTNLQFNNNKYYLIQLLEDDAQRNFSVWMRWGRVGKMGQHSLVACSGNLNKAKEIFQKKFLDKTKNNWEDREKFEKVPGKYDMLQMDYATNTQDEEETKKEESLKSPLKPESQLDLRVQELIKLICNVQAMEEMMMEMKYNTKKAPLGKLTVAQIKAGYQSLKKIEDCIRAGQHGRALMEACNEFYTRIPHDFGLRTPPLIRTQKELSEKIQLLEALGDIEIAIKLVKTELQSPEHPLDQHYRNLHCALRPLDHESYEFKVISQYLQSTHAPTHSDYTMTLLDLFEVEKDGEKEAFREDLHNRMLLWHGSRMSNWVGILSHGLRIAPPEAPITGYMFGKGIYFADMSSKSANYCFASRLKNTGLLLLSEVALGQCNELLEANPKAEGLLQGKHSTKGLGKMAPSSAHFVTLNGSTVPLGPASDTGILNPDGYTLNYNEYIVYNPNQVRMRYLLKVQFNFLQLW

Regarding `O=c1cc(-c2ccc(F)cc2)oc2cc(-c3ccoc3)ccc12` [Compound 14, 2–(4-fluorophenyl)-7-(furan-3-yl)-4H-chromen-4-one], the “Mitochondrial membrane potential (rhodamine 123 fluorescence)” value in the assay with Ishikawa cells [1] is “reduction in rhodamine fluorescence in a concentration-dependent manner”. Further, the “Expression of CDK1 protein (western blot)” value in assay [2] is on record as “downregulated the expression of CDK1 protein”. For the same compound, the IC50 was 74 nM and 74.6 nM against PARP1; 109 nM against PARP2. Besides, the “Apoptosis induction (nuclear morphology, DAPI staining)” value with Ishikawa cells [3] is recorded as “concentration-dependent increase in the number of scattered apoptotic bodies”.
